# Data reported in patent US8481727B2, “Crystals of hydrochloride of pyridazin-3(2H)-one compound and process for production of same” (Nissan Chemical Industries, Ltd., priority 2008, dated 2013).
# Assay: Dissolution test, paddle method in Japanese Pharmacopoeia (Test Example 1)
# Format: physicochemical
# Conditions: about 10 mg in 900 ml test fluid, 50 rpm; dissolution test first fluid (pH 1.2) and second fluid (pH 6.8); sampling at 10, 30, 60 and 120 minutes; UV measurement; compared with A-form crystal
# Procedure: About 10 mg of each of A-form crystal (Form A) obtained in Example 1, B-form crystal (Form B) obtained in Example 2 and H-form crystal (Form H) obtained in Example 3 was sampled, and a test was carried out at 50 rpm by the dissolution test method paddle method in Japanese Pharmacopoeia using 900 ml of a test fluid. Upon expiration of 10 minutes, 30 minutes, 60 minutes and 120 minutes after initiation of the test, sampling was carried out, and UV measurements were carried out, whereupon the dissolution ratios were calculated. Here, as the dissolution tester, NTR-VS6P manufactured by TOYAMA SANGYO CO., LTD. was used; as the spectrophotometer, UV-2400PC manufactured by Shimadzu Corporation was used; and as the test fluid, the dissolution test first fluid (pH 1.2) and second fluid (pH 6.8) were used. The results are shown in FIGS. 3 and 4 (the ordinate represents the dissolution ratio (%), and the abscissa represents the dissolution time (minutes)).
structure (smiles),measurement,value
"Cl.O=c1[nH]nc(OCCCc2ccc(Cl)cc2)c(NCc2cccnc2)c1Br [B-form crystal, 4-bromo-6-(3-(4-chlorophenyl)propoxy)-5-(pyridin-3-ylmethylamino)pyridazin-3(2H)-one mono-hydrochloride]",solubility (dissolution ratio),superior to A-form crystal in solubility
